# Values quoted from earlier work in PMC9316000, “Preclinical Drug Pharmacokinetic, Tissue Distribution and Excretion Profiles of the Novel Limonin Derivate HY-071085 as an Anti-Inflammatory and Analgesic Candidate in Rats and Beagle Dogs” (Pharmaceuticals, 2022).
# Read-outs that look alike come from different tables or passages of the source.
# Experiments:
# [1] = set-up: method as in earlier work; conditions: Temp 25℃; cited from earlier work
# [2] = set-up: method as in earlier work; conditions: Temp 25℃, pH 7.0; cited from earlier work
# [3] = set-up: method as in earlier work; conditions: Temp 25℃; cited from earlier work; remark: listed apart in the source
# [4] = set-up: method as in PMID 16435568; conditions: cited from earlier work
structure (smiles),measurement,setting,value
CC1(C)O[C@H]2CC(=O)OC[C@]23[C@H]2CC[C@@]4(C)[C@H](c5ccoc5)OC(=O)[C@H]5O[C@]54[C@]2(C)C(=O)C[C@@H]13 [Limonin],Intrinsic solubility,[1],220 µg/mL
same,LogD,[2],0.47
same,logP,[3],0.474
same,exposure of female rats relative to male rats,[4]; intravenous administration,three-fold higher
same,exposure of female rats relative to male rats,[4]; oral administration,50 fold
